Data published in patent US20230048888A1, “USE OF TRIAZOLOTRIAZINE DERIVATIVE IN TREATMENT OF DISEASES” (ZHEJIANG VIMGREEN PHARMACEUTICALS, LTD., priority 2019, published 2023).

Key:
[1] = Pharmacokinetics of Compounds 27, 40, 22 and 41 in ICR mice in different modes of administration; format: in vivo; conditions: for Drug accumulation after consecutive oral administration: 30 mg/kg oral; for AUC(0-t) / Cmax / half-life: ICR; for AUC(0-t) / Cmax / half-life / clearance: mouse, in vivo; for clearance: IV, read-out: Cl—pred (converted)
Excerpt: WinNonlin® 6.4 was used as the calculation software for PK parameters.

adenosine receptor A2b = target: T1, adenosine receptor A2b (Homo sapiens, UniProt P29275); test: cAMP experiment on Gs-coupled adenosine receptor A2b (HEK293); format: cell-based; conditions: cAMP accumulation, NECA EC80; read-out: IC50 (nM) HEK293 cells (ADORA2B)
T1 construct: host or cells: HEK293
T1 sequence (P29275 1-332): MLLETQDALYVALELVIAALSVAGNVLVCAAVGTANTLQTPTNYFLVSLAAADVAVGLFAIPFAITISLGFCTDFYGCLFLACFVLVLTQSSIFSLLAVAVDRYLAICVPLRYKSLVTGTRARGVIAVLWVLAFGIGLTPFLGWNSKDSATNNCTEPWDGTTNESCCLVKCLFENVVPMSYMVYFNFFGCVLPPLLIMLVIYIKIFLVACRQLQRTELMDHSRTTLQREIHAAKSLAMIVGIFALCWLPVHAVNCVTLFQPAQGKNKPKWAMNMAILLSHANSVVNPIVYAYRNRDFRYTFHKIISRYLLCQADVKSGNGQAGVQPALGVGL
Procedure: In this experiment, a HEK293 cell line stably expressing the adenosine receptor A2b was taken as a study object (PerkinElmer, ES-013-C) for the experiment. […] A solution system for cell inoculation was 10 μL of cAMP experimental buffer. […] Similarly, 10 mM test compound was also subjected to 3-fold gradient dilution in 100% DMSO. The gradient-diluted reference compound and test compound were added to a 384-well compound plate (Labcyte, PP-0200). 10 nL of the gradient-diluted reference agonist NECA per well was transferred to a test plate containing cells by using Echo (Labcyte, 550), and the test plate was incubated for 30 minutes at 37° C. 5 μL of Eu-cAMP tracer working solution and 5 μL of ULight-anti-cAMP working solution (PerkinElmer, TRF0263) were added to the test plate per well, and the test plate was incubated for 30 minutes at 25° C. […] 1000×EC80 NECA was prepared with 100% DMSO. […] The test plate was incubated for 20 minutes at 25° C., and then 10 nL of the 1000×EC80 NECA per well was transferred to the test plate. The test plate was incubated for 30 minutes at 37° C. 5 μL of Eu-cAMP tracer working solution and 5 μL of ULight-anti-cAMP working solution were added to the test plate per well, and the test plate was incubated for 30 minutes at 25° C. The fluorescence signal ratio of each well in the test plate was read, and the IC50 value of the compound was calculated by using the output data of the reference inhibitor and test compound and the concentration of the compound.

[2] = Pharmacokinetics of Compounds 22, 27 and 40 in SD rats after oral administration for 7 consecutive days; format: in vivo; conditions: for Accumulation after consecutive administration: SD rats; for AUC / AUC(0-t) / Cmax / Tmax: rat, plasma; for AUC / Cavg / Cmin / AUC(0-t) / Cmax / Tmax: male SD rats; for AUC(0-t) / Cmax / Tmax: male, po, 30 mg/kg; for Tmax: median
Procedure: 12 male SD rats (about 7-9 weeks old on the day of administration, 283.0-298.1 g) were purchased from SPF (Beijing) Biotechnology Co., Ltd. They were randomly divided into 3 groups, with 4 rats in each group, and received orally administration once daily for 7 consecutive days. Compound 27 was administrated to Group 1 at 30 mg/kg, Compound 22 was administrated to Group 2 at 30 mg/kg, and Compound 40 was administrated to Group 3 at 30 mg/kg. All animals had free access to water and diet during dosing.
0.3366 g of Compound 27, 0.3333 g of Compound 22 and 0.3366 g of Compound 40 were weighed out respectively, and dissolved in 44 mL of PEG400 with stirring and ultrasonication; 50 mL of PBS was added to the resulting mixture, stirred and sonicated for complete dissolution; PBS was added to fix the volume to the final volume of 110 mL, thereby obtaining the target formulation solution with the final concentration of 3.0 mg/mL. The prepared formulation solution was divided into 7 portions, each of 15 mL, and stored in a refrigerator at 4° C. Before administration, the formulation was held at room temperature, until its temperature returned to room temperature; the formulation was stirred at room temperature for at least 10 minutes; and the stirring continued during the administration. The entire process for preparing the formulation was operated under yellow light, and during transferring, the prepared formulation was wrapped with tin foil to protect it from light.
The concentrations of Compounds 27, 22 and 40 in the plasma of SD rats were determined by liquid chromatography-mass spectrometry, with […] as the internal standard compound. With the mass spectrometer scanning in the electrospray ion source positive ion mode, the mass-to-charge ratios of parent ions to daughter ions in Compounds 27, 40 and 22 and tolbutamide were 395.2→178.2, 404.2→158.9, 393.4→146.2 and 455.2→165.0, respectively.
The pharmacokinetic parameters of Compounds 27, 40 and 22 were calculated by the software Phoenix™ WinNonlin Version 6.1 using the non-compartmental model. Pharmacokinetic data was calculated using the linear logarithmic trapezoidal method, with a weight of 1/Y*Y. Samples with the sample concentration below the lower limit of quantification were excluded from the calculation of pharmacokinetic parameters. […] The mean time to peak (Tmax) was represented as a median.

[3] = po, 30 mg/kg, PO (after 7 consecutive days of administration), 30 mg/kg
[4] = PO (after 7 consecutive days of administration), 30 mg/kg
[5] = oral 30 mg/kg once a day for 7 consecutive days
[6] = Sprague-Dawley, oral 30 mg/kg once a day for 7 consecutive days, Day 7, mean
[7] = oral 30 mg/kg once a day for 7 consecutive days, Day 7, mean
[8] = Sprague-Dawley (SD), oral 30 mg/kg once a day, Day 1, read-out: drug exposure AUC0-t
[9] = Sprague-Dawley (SD), oral 30 mg/kg once a day, Day 1, read-out: maximum plasma concentration Cmax
[10] = Sprague-Dawley (SD), oral 30 mg/kg once a day, seventh day, read-out: drug exposure AUC0-t
[11] = Sprague-Dawley (SD), oral 30 mg/kg once a day, seventh day, read-out: maximum plasma concentration Cmax
[12] = Sprague-Dawley, oral 30 mg/kg once a day for 7 consecutive days, Day 7, mean, read-out: AUC0-t
[13] = Sprague-Dawley, oral 30 mg/kg once a day for 7 consecutive days, Day 7, mean, read-out: Cmax
[14] = Sprague-Dawley, oral 30 mg/kg once a day for 7 consecutive days, Day 7
[15] = Sprague-Dawley, oral 30 mg/kg once a day, Day 1, mean, read-out: AUC0-t
[16] = Sprague-Dawley, oral 30 mg/kg once a day, Day 1, mean, read-out: Cmax
[17] = Sprague-Dawley, oral 30 mg/kg once a day, Day 1

AUC(0-t) ([1]; iv, 1 mg/kg)	Cmax ([1]; iv, 1 mg/kg)	half-life ([1]; iv, 1 mg/kg)	AUC(0-t) ([1]; po, 5 mg/kg)	Cmax ([1]; po, 5 mg/kg)	half-life ([1]; po, 5 mg/kg)	AUC(0-t) [1, 3]	Cmax [1, 3]	half-life [1, 3]	AUC(0-t) ([1]; po, 30 mg/kg, PO (single))	Cmax ([1]; po, 30 mg/kg, PO (single))	half-life ([1]; po, 30 mg/kg, PO (single))	Cl—F—pred [1, 4]	Cl—F—pred ([1]; PO (single), 30 mg/kg)	Cl—F—pred ([1]; PO, 5 mg/kg)	F ([1]; PO, 5 mg/kg)	clearance ([1]; 1 mg/kg)	IC50 (adenosine receptor A2b)	Accumulation after consecutive administration [2, 5]	SMILES	Drug accumulation after consecutive oral administration [1]	further results
495 ng·h/mL	993 ng/mL	0.67 h	3100 ng·h/mL	1550 ng/mL	1.19 h	41700 ng·h/mL	17300 ng/mL	1.86 h	33600 ng·h/mL	14500 ng/mL	1.12 h	12 mL/min/kg	15.3 mL/min/kg	27.5 mL/min/kg	125.29%	33.8 mL/min/kg	307 nM	do not show significant accumulation	COCCNc1ccc(CCNc2nc(N)n3nc(-c4ccco4)nc3n2)cc1 [Compound 27, 2-(furan-2-yl)-N5-(4-((2-methoxyethyl)amino)phenethyl)-[1,2,4]triazolo[1,5-a][1,3,5]triazine-5,7-diamine]	significant drug accumulation is not observed	AUC [2, 6]: 22200 ng·h/mL; Cavg [2, 7]: 925 ng/mL; Cmin [2, 7]: 9.23 ng/mL; AUC(0-t) [2, 8]: 29600 ng·h/mL; Cmax [2, 9]: 7100 ng/mL; AUC(0-t) [2, 10]: 22200 ng·h/mL; Cmax [2, 11]: 4620 ng/mL; AUC(0-t) [2, 12]: 22200 ng·h/mL; Cmax [2, 13]: 4620 ng/mL; Tmax [2, 14]: 1.5 h; AUC(0-t) [2, 15]: 29600 ng·h/mL; Cmax [2, 16]: 7100 ng/mL; Tmax [2, 17]: 2 h
1540 ng·h/mL	1880 ng/mL	2.49 h	5540 ng·h/mL	2130 ng/mL	2.36 h	10600 ng·h/mL	2330 ng/mL	2.79 h	24400 ng·h/mL	14400 ng/mL	1.65 h	47 mL/min/kg	20.5 mL/min/kg	15 mL/min/kg	71.99%	10.8 mL/min/kg	343 nM	do not show significant accumulation	Cn1nnc(-c2ccc(CCNc3nc(N)n4nc(-c5ccco5)nc4n3)cc2)n1 [Compound 40, N5-(4-(2-methyl-2H-tetrazol-5-yl)phenethyl)-2-(furan-2-yl)-[1,2,4]triazolo[1,5-a][1,3,5]triazine-5,7-diamine]	significant drug accumulation is not observed	AUC [2, 6]: 6580 ng·h/mL; Cavg [2, 7]: 274 ng/mL; Cmin [2, 7]: 52.3 ng/mL; AUC(0-t) [2, 8]: 5150 ng·h/mL; Cmax [2, 9]: 503 ng/mL; AUC(0-t) [2, 10]: 6580 ng·h/mL; Cmax [2, 11]: 581 ng/mL; AUC(0-t) [2, 12]: 6580 ng·h/mL; Cmax [2, 13]: 581 ng/mL; Tmax [2, 14]: 4 h; AUC(0-t) [2, 15]: 5150 ng·h/mL; Cmax [2, 16]: 503 ng/mL; Tmax [2, 17]: 3 h

SMILES	AUC(0-t) ([1]; iv, 1 mg/kg)	Cmax ([1]; iv, 1 mg/kg)	half-life ([1]; iv, 1 mg/kg)	AUC(0-t) ([1]; po, 5 mg/kg)	Cmax ([1]; po, 5 mg/kg)	half-life ([1]; po, 5 mg/kg)	AUC(0-t) [1, 3]	Cmax [1, 3]	half-life [1, 3]	AUC(0-t) ([1]; po, 30 mg/kg, PO (single))	Cmax ([1]; po, 30 mg/kg, PO (single))	half-life ([1]; po, 30 mg/kg, PO (single))	Cl—F—pred [1, 4]	Cl—F—pred ([1]; PO (single), 30 mg/kg)	Cl—F—pred ([1]; PO, 5 mg/kg)	F ([1]; PO, 5 mg/kg)	clearance ([1]; 1 mg/kg)	IC50 (adenosine receptor A2b)	Accumulation after consecutive administration [2, 5]	Drug accumulation after consecutive oral administration [1]	further results
Nc1nc(NCCc2ccc(NC3COC3)cc2)nc2nc(-c3ccco3)nn12 [Compound 22, 2-(furan-2-yl)-N5-(4-(oxetan-3-ylamino)phenethyl)-[1,2,4]triazolo[1,5-a][1,3,5]triazine-5,7-diamine]	925 ng·h/mL	1690 ng/mL	0.94 h	3960 ng·h/mL	3510 ng/mL	2.74 h	15400 ng·h/mL	4800 ng/mL	3.04 h	18000 ng·h/mL	9650 ng/mL	2.22 h	32.5 mL/min/kg	27.8 mL/min/kg	21 mL/min/kg	85.72%	18.2 mL/min/kg	380 nM	do not show significant accumulation	significant drug accumulation is not observed	AUC [2, 6]: 6950 ng·h/mL; Cavg [2, 7]: 290 ng/mL; Cmin [2, 7]: 11.4 ng/mL; AUC(0-t) [2, 8]: 6630 ng·h/mL; Cmax [2, 9]: 1020 ng/mL; AUC(0-t) [2, 10]: 6950 ng·h/mL; Cmax [2, 11]: 947 ng/mL; AUC(0-t) [2, 12]: 6950 ng·h/mL; Cmax [2, 13]: 947 ng/mL; Tmax [2, 14]: 1.5 h; AUC(0-t) [2, 15]: 6630 ng·h/mL; Cmax [2, 16]: 1020 ng/mL; Tmax [2, 17]: 4 h
